The values below are quoted from earlier work in patent publication US11919851B2, “Method for producing polyol-based esters of optionally acylated hydroxycarboxylic acids” (IOI Oleo GmbH, priority 2019, dated 2024).

For this series the following is noted: free acid and its salts; prior art statement.

On to `CC(O)CC(=O)O` (stereo not shown) [3-hydroxybutyric acid], for which the “adverse effects on oral administration” value is “can cause severe vomiting and nausea”.
